Results on eight compounds are retold here after ChEMBL document CHEMBL1125072, “Synthesis and biochemical evaluation of tritium-labeled 1-methyl-N-(8-methyl-8-azabicyclo[3.2.1]oct-3-yl)-1H-indazole-3-carboxa mide, a useful radioligand for 5HT3 receptors” (J Med Chem, 1990).

Assay [1] concerns the target T1, Serotonin 3 (5-HT3) receptor (Rattus norvegicus, UniProt P35563+Q9JJ16).
T1 sequence (P35563 whole entry): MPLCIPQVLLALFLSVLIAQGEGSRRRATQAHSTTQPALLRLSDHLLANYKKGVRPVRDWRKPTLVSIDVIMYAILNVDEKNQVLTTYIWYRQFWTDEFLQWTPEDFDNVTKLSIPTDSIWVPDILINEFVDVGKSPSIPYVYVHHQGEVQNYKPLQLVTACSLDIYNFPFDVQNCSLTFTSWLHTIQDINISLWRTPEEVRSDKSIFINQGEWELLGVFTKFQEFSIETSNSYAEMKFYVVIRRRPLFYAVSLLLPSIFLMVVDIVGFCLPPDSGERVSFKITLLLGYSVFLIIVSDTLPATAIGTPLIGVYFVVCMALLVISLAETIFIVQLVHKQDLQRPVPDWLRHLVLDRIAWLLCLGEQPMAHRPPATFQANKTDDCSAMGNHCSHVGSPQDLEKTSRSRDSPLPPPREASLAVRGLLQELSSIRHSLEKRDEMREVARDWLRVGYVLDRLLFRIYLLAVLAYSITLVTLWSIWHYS
T1 sequence (Q9JJ16 whole entry): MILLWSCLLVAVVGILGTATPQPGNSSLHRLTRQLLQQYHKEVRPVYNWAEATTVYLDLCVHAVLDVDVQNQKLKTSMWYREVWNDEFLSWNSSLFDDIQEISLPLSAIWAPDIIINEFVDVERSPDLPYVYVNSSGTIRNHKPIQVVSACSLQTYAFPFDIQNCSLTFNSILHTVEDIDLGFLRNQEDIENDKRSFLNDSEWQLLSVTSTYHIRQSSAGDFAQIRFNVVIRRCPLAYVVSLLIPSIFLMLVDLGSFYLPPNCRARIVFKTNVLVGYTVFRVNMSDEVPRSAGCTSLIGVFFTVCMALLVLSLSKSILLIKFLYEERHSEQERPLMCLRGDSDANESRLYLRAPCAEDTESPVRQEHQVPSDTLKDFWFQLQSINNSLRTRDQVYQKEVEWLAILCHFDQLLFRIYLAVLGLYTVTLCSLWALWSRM
The experiment in a line: Inhibitory activity against 5-hydroxytryptamine 3 receptor in rat cortical membranes using [3H]- 1-Methyl-1H-indazole-3-carboxylic acid (8-methyl-8-aza-bicyclo[3.2.1]oct-3-yl)-amide as a radioligand. It is filed as cell membranes.

In assay [2] the target is T1, Serotonin 3 (5-HT3) receptor. The experiment in a line: pKi value for inhibition of [3H]LY-278584 binding to 5-hydroxytryptamine 3 receptor. The assay is classed as protein-complex assay.
Assay [3] concerns the target T2, 5-hydroxytryptamine receptor 1A (Rattus norvegicus, UniProt P19327).
T2 sequence (P19327 whole entry): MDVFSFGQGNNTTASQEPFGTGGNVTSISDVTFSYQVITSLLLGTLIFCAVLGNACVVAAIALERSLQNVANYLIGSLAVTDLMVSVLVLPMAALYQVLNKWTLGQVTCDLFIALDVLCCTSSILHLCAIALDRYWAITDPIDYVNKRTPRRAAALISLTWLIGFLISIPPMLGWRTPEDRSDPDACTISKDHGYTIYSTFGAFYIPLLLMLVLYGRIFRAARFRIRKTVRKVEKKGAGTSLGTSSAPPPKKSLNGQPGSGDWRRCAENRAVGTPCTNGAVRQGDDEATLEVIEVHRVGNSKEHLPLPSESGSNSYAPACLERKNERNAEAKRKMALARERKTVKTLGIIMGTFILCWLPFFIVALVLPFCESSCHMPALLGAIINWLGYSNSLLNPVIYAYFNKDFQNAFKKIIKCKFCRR
The experiment in a line: Inhibitory activity against 5-hydroxytryptamine 1A receptor in rat cortical membranes using [3H]8-OH-DPAT as a radioligand. It is filed as cell membranes.

Assay [4] concerns the target 5-hydroxytryptamine receptor 1B (Rattus norvegicus, UniProt P28564). The experiment in a line: Inhibitory activity against 5-hydroxytryptamine 1B receptor in rat cortical membranes using [3H]5-HT as a radioligand. It is filed as cell membranes.
Assay [5] deals with Rattus norvegicus. The experiment in a line: Effective dose required to reduce von benzold jarisch reflex response to 5-HT was determined; Value ranges from 10-30 ug/Kg. The assay is classed as functional.
Assay [6] has as its system Rattus norvegicus. The experiment in a line: Percentage inhibition 5-HT- mediated bradycardia in rat after 3 ug/Kg of compound administered intravenously. It is filed as functional.

Sequence of 5-hydroxytryptamine receptor 1B (P28564 whole entry): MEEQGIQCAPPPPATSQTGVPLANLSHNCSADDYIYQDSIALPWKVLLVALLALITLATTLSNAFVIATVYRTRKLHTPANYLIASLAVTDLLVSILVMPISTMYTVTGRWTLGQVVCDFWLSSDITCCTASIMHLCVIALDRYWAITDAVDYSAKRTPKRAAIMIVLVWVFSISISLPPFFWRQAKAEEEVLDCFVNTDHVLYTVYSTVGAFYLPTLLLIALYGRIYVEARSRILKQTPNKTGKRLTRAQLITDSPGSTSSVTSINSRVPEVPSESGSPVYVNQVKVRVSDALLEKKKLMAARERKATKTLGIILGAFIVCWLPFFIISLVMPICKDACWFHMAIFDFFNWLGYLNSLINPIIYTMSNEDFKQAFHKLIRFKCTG

As for `c1ccc2nc(N3CCNCC3)ccc2c1` [QUIPAZINE], the inhibitory constant (Ki) in assay [1] was 3.04 nM; in assay [2] it was 3.02 nM.
For `CN1C2CCCC1CC(NC(=O)c1nn(C)c3ccccc13)C2` (stereo not drawn) [GRANISETRON], the inhibition constant Ki in assay [3] and in assay [4] was above 1000 nM in each case. This compound returned an ED50 in assay [5] of 0.01 mg/kg.
For the compound `CN1[C@@H]2CC[C@H]1C[C@@H](OC(=O)c1c[nH]c3ccccc13)C2` [TROPISETRON], in assay [6], the Inhibition is 66%. The inhibition constant Ki in assay [1] was 1.28 nM; in assay [2], 1.29 nM.
On to `COc1cc(N)c(Cl)cc1C(=O)NC1CN2CCC1CC2` (stereo not drawn) [ZACOPRIDE], for which the inhibition constant Ki was 0.42 nM in assay [1] and 0.417 nM in assay [2].
The matching figures for `CN1C2CCC1CC(NC(=O)c1n[nH]c3ccccc13)C2` (stereo not drawn): 4.26 nM and 4.27 nM.
Consider `CN1[C@@H]2CC[C@H]1C[C@@H](OC(=O)c1cc(Cl)cc(Cl)c1)C2` [BEMESETRON], for which the inhibition constant Ki in assay [1] was 26 nM; in assay [2] it was 25.7 nM.
The matching figures for `CN1C2CCC1CC(NC(=O)c1c3ccccc3nn1C)C2` (stereo not drawn): 1050 nM and 1050 nM.
The matching figures for `CCN(CC)CCNC(=O)c1cc(Cl)c(N)cc1OC` [METOCLOPRAMIDE]: 502 nM and 501 nM.

One may read the Ki as the equilibrium dissociation constant of an inhibitor or competing ligand from its target. Lower therefore signals tighter binding. By ED50 is commonly meant the dose that gives a 50% effect, or the effect in half of the subjects. What is called Inhibition is how much of the control response was suppressed. Read a low Inhibition as a weak effect.
